Assay [1] deals with E. coli B. The experiment in a line: Amplification of the antibacterial (cell-killing) activity of phleomycin in stationary phase cultures, viable cell counts. The class given is cell-based. The conditions noted are these: concentration of optimum activity after phleomycin pretreatment (2 μg/ml, 30 min, 37°); 120 min treatment. The protocol: The ability of the compounds to potentiate the cell-killing effects of phleomycin was measured by the following procedure. Stationary phase cultures of E. coli B, with or without the compounds under test, were resuspended in growth medium containing phleomycin (2 μg/ml) and incubated at 37° for 30 minutes. The cells were then membrane filtered (0.45 μm pore size; 2.5 cms), washed with growth medium (20 μg/ml) and resuspended in growth medium (20 μg/ml) at 37° C. containing various concentrations, between 10^-10 M and 10^-2 M, of the compound under test. As a control, bacteria were exposed to the same range of concentrations of each compound but without the phleomycin pretreatment. To determine viable cell numbers aliquots were taken from each cell suspension after 120 minutes treatments, plated on agar medium and incubated overnight at 37° C. All operations with amplifying agents were carried out in near dark conditions.
Compounds were designated as active when the increase in activity with the combined treatment was greater than could be explained by the effects of the two compounds when administered separately.

Assay [2] concerns Walker rat carcinoma 256. The experiment in a line: Survival of rats bearing Walker rat carcinoma 256 ascites tumour, treated with phleomycin plus amplifier. In kind it is in vivo, Sprague Dawley rats. The settings on record: for amplification of the activity of phleomycin (survival of tumour-bearing rats): doses as in Table 2. The protocol:
Walker rat carcinoma 256 as the ascites form was passaged in female Sprague Dawley rats. […] Intraperitoneal injections of 0.1 ml (10^6 viable cells) of the suspension were then made into test groups of 6-8 male Sprague Dawley rats.
Phleomycin dissolved in phosphate-buffered saline was given to animals in the test groups as 0.1 ml intraperitoneal injections twice daily; each injection was followed by a 0.1 ml intraperitoneal injection of the prospective amplifier. The treatments were given for 5-10 days, at varying concentrations of the phleomycin and amplifier.
The method of evaluating the effectiveness of the various treatments was based on those used in the screening programme of the Drug Evaluation Branch, National Cancer Institute, National Institute of Health, Bethesda, Maryland, U.S.A. (Cancer Chemotherapy Reports, Vol. 3, No. 2, September 1972). Thus the effectiveness of the drug treatment was measured by the increased survival time, measured in days, of the treated animals over control ones which received no drugs. Dead animals were counted daily, and median survival times (MST) calculated for all groups. […] The ratios (test group median survival time) divided by (control group median survival time)× 100 (T/C) were calculated for all the test groups.

Assay [3] has as its system E. coli B. The assay can be described thus: Amplification of the antibacterial (cell-killing) activity of phleomycin in stationary phase cultures, viable cell counts. In kind it is cell-based. The settings on record: envisaged from present studies; phleomycin at about 1 mg/l (or mg/kg).
The mark [4] stands for this setting: Neutral Red 20 MKD alone (phleomycin 0), ×2 daily.
Setting [5] is: phleomycin 8 MKD + Neutral Red 20 MKD, i.p. ×2 daily.
Setting [6] is: phleomycin 16 MKD + Neutral Red 20 MKD, i.p. ×2 daily.
The mark [7] stands for this setting: phleomycin 32 MKD + Neutral Red 20 MKD, i.p. ×2 daily.
[8] abbreviates: Crystal Violet 0.5 MKD alone (phleomycin 0), twice daily from days 2 to 10.
Setting [9] is: phleomycin 4 MKD + Crystal Violet 0.5 MKD, i.p. twice daily from days 2 to 10.
Setting [10] is: 4,4'-bis(trimethylammonio)diphenylmethane dichloride 270 MKD alone (phleomycin 0), ×2 daily.
The mark [11] stands for this setting: phleomycin 4 MKD + 4,4'-bis(trimethylammonio)diphenylmethane dichloride 270 MKD, i.p. ×2 daily.
The mark [12] stands for this setting: Malachite Green 52 MKD alone (phleomycin 0), ×2 daily.
[13] abbreviates: phleomycin 8 MKD + Malachite Green 52 MKD, i.p. ×2 daily.
Where [14] appears, read: Auramin 0 7.6 MKD alone (phleomycin 0), ×2 daily.
Where [15] appears, read: phleomycin 8 MKD + Auramin 0 7.6 MKD, i.p. ×2 daily.
Setting [16] is: Brilliant Green 640 MKD alone (phleomycin 0), ×2 daily.
The mark [17] stands for this setting: phleomycin 5 MKD + Brilliant Green 640 MKD, i.p. ×2 daily.
Where [18] appears, read: phleomycin 10 MKD + Brilliant Green 640 MKD, i.p. ×2 daily.
Where [19] appears, read: phleomycin 20 MKD + Brilliant Green 640 MKD, i.p. ×2 daily.

Turning to `CCNc1ccc2c(-c3ccccc3C(=O)O)c3ccc(=[N+](CC)CC)cc-3oc2c1.[Cl-]` [Rhodamine G], the “Optimum Concentration tested” value in assay [1] is 120 µM.

In the case of `Cc1cc2nc3cc(C)c(N)cc3[n+](-c3ccccc3)c2cc1N.[Cl-]` [Safranin T], in assay [1], the “Optimum Concentration tested” value worked out at 14 µM.

Consider `Nc1cc2nc3ccccc3oc-2cc1=O` [2-aminophenoxazone], for which the “Optimum Concentration tested” value in assay [1] turned out to be 25 µM.

For the compound `CC[n+]1c(C=Cc2ccc(N(C)C)cc2)ccc2ccccc21.[Cl-]` [2-p-dimethylaminostyryl-N-ethyl-quinolinium chloride], the “Optimum Concentration tested” value in assay [1] was found to be 0.3 µM.

Regarding `Cc1cc2nc3ccc(N(C)C)cc3nc2cc1N.Cl` [Neutral Red], the “Optimum Concentration tested” value in assay [1] turned out to be 33 µM. The “enhancement of the ability of phleomycin to prolong the survival of rats carrying tumours” value in assay [2] (Neutral Red 20 μg/kg/day with phleomycin at 8, 16 or 32 micrograms/kg/day) was “active”. In addition, the MST in assay [2] (setting [4]) is listed as 11.0 days; in assay [2] (setting [5]), 20 days; in assay [2] (setting [6]), > 30 days; in assay [2] (setting [7]), > 30 days. In addition, the T/C in assay [2] (setting [4]) is recorded as 79; in assay [2] (setting [5]), 143; in assay [2] (setting [6]), > 214; in assay [2] (setting [7]), > 214.

For `CC[n+]1c(-c2ccccc2)c2cc(N)ccc2c2ccc(N)cc21.[Br-]` [Ethidium bromide], the “Optimum Concentration tested” value in assay [1] was 13 µM. In assay [3], the “adequate concentration of amplifier in conjunction with phleomycin” value (“adequate concentration of amplifier” for short) was 10^-4 molar.

As to `CN(C)c1ccc2nc3ccc(=[N+](C)C)cc-3sc2c1.[Cl-]` [Methylene Blue], the “Optimum Concentration tested” value in assay [1] stood at 13 µM.

For the compound `Cc1cc2nc3ccc(N(C)C)cc3[s+]c2cc1N.[Cl-]` [Toluidine Blue], the “Optimum Concentration tested” value in assay [1] was 16 µM.

With `CN(C)c1ccc(C(=C2C=CC(=[N+](C)C)C=C2)c2ccc(N(C)C)cc2)cc1` [Crystal Violet], the “Optimum Concentration tested” value in assay [1] turned out to be 2.4 µM. For the same compound, the MST is reported as 12.5 days in assay [2] (setting [8]) and > 30 days in assay [2] (setting [9]). Moreover, the results for the T/C in assay [2] (setting [8]) and in assay [2] (setting [9]) were 104 and 250, respectively. The “amplification of the activity of phleomycin (survival of tumour-bearing rats)” value (from here on “amplification”) in assay [2] is reported as “amplified the activity of phleomycin”. Also, the “adequate concentration of amplifier” value in assay [3] is given as 10^-7 molar.

Turning to `C[N+](C)(C)c1ccc(Cc2ccc([N+](C)(C)C)cc2)cc1` [4,4'-bis(trimethylammonio)diphenylmethane], the “Optimum Concentration tested” value in assay [1] is 29 µM. The MST in assay [2] (setting [10]) is reported as 8.0 days; in assay [2] (setting [11]) it was 10.0 days. The T/C is 100 in assay [2] (setting [10]) and 125 in assay [2] (setting [11]). In assay [2], the “amplification” value was “amplified the activity of phleomycin”. The “adequate concentration of amplifier” value in assay [3] was 10^-3 molar.

On to Methyl Violet, for which the “Optimum Concentration tested” value in assay [1] was 1.6 µM.

As for `CC[N+](CC)=c1ccc2nc3c(cc(N)c4ccccc43)oc-2c1` [Nile Blue], the “Optimum Concentration tested” value in assay [1] stood at 2.7 µM.

With `CCN(CC)CCCC(C)Nc1c2ccc(Cl)cc2nc2ccc(OC)cc12` (stereo not shown) [Quinacrine], the “Optimum Concentration tested” value in assay [1] is 39 µM.

`CN(C)c1ccc(C(=C2C=CC(=[N+](C)C)C=C2)c2ccccc2)cc1.[Cl-]` [Malachite green]: the “Optimum Concentration tested” value in assay [1] came out at 3 µM. Further, in assay [2] (setting [12]), the MST was 8 days and the T/C is reported as 100. Moreover, the “amplification” value in assay [2] is “amplified the activity of phleomycin”. For the same compound, in assay [2] (setting [13]), the MST is given as 16.5 days and the T/C worked out at 206.

As for `CN(C)c1ccc2cc3ccc(=[N+](C)C)cc-3oc2c1.[Cl-]` [Pyronin Y], in assay [1], the “Optimum Concentration tested” value was 170 µM.

Regarding Brilliant Cresol Blue, the “Optimum Concentration tested” value in assay [1] was 340 µM.

For the compound `CN(C)c1ccc(C(=N)c2ccc(N(C)C)cc2)cc1.Cl` [Auramin O], the “Optimum Concentration tested” value in assay [1] was found to be 3.3 µM. Also, in assay [2] (setting [14]), the MST is 9.5 days and the T/C turned out to be 95. For the same compound, the “amplification” value in assay [2] is given as “amplified the activity of phleomycin”. In addition, in assay [2] (setting [15]), the MST was 18 days and the T/C is reported as > 180.

With `CCN(CC)c1ccc(C(=C2C=CC(=[N+](CC)CC)C=C2)c2ccccc2)cc1.O=S(=O)([O-])O` [Brilliant Green], in assay [1], the “Optimum Concentration tested” value stood at 9.6 µM. The MST in assay [2] (setting [16]) turned out to be 9 days; in assay [2] (setting [17]) it was 10 days; in assay [2] (setting [18]), 11 days; in assay [2] (setting [19]) it was 11 days. The T/C in assay [2] (setting [16]) worked out at 112; in assay [2] (setting [17]), 125; in assay [2] (setting [18]), 138; in assay [2] (setting [19]) it was 138. Also, in assay [2], the “amplification” value is listed as “amplified the activity of phleomycin”.

As for `C[N+](C)(C)c1ccc2cc3ccc([N+](C)(C)C)cc3c(-c3c4cc([N+](C)(C)C)ccc4cc4ccc([N+](C)(C)C)cc34)c2c1.[Cl-].[Cl-].[Cl-].[Cl-]` [2,2', 7,7'-tetrakis(trimethylammonio)-9,9'-dianthracene tetrachloride], the “Optimum Concentration tested” value in assay [1] stood at 50 µM.

For the compound `C[N+](C)(C)c1ccc(-c2ccc([N+](C)(C)C)cc2)cc1.[Cl-].[Cl-]` [4,4'-bis(trimethylammonio)diphenyl-dichloride], the “Optimum Concentration tested” value in assay [1] is 310 µM.
